Test results reported in patent US20030207811A1, “Method of treating retinopathy of prematurity using somatostatin analogs” (priority 2002, published 2003).
“Also recorded” adds a separate entry of the source. Bridge positions count the residues as written; N and C are the ends. Square brackets hold non-standard residues; d marks the D form. Peptide text beside a SMILES is read from it.

Assays:
[1] = tested on: oxygen induced retinopathy; assay: Oxygen induced retinopathy in neonatal mice, retinal scoring of fluorescein perfused whole mounts; type: in vivo, C57BL6 mice; conditions: for retinal neovascularization: mouse model of oxygen induced retinopathy; for median total retinopathy score / median total retinopathy score [median(25th, 75th quartile)]: oxygen reared; for median total retinopathy score [median(25th, 75th quartile)]: octreotide 20 μg kg^−1 bid s.c. P12-P16
Protocol: (§1) This protocol was approved by the Georgetown University Animal Care and Use committee and adhered to the Association for Research in Vision and Ophthalmology Statement for the Use of Animals in Ophthalmic and Vision Research. C57BL6 mice were obtained from Taconic Laboratories (Germantown, N.Y.). Neonatal mice were placed in an infant incubator with their nursing mother with 75% oxygen at P7 and remained in oxygen until removal to room air at P12 (Smith et al., 1994 Invest. Ophthalmol. Vis. Sci. 35, 101-11). Oxygen was delivered at 75±2%, measured with an oxygen analyser (Hudson Ventonics, Temecula, Calif., U.S.A.), and checked at least twice daily. Individual litters were either oxygen or room air reared. Within litters, differential treatment was performed including no treatment, octreotide, Woc4D, and sham injection. Animals were treated with injections for 5 days from P12 to P16. Animal killing was performed using a lethal dose of pentobarbital (120 mg/kg i.p.). Animals were perfused with fluorescein conjugated dextran as previously described (D'Amato et al., 1993, Microvasc. Res. 46, 135-42) and retinopathy was assessed by a retinal scoring system shown in Table I.
It was received and used as the acetate salt. Octreotide acetate was purchased from Polypeptide Laboratories. […] The analogs were dissolved in 33 mM acetate buffer (pH 5) with 135 mM NaCl. Sham injections were performed with that vehicle.
Retinopathy scores were evaluated by the Kruskal-Wallis test for the overall group and by the Mann-Whitney test to determine differences between groups. Animals weights and GH expression were evaluated using Student's t-test. Statistical significance was determined at the P<0.05 level.

[2] = tested on: pituitary growth hormone (GH) mRNA; assay: Pituitary growth hormone mRNA expression by RT-PCR; type: in vivo, C57BL6 mice
Protocol: RNA was extracted using TRIzol reagent (Life Technologies, Rockville, Md., U.S.A.) as described by the manufacturer and reverse transcriptase polymerase chain reaction (RT-PCR) was performed. Ten μg of RNA and 2 μM oligo(dT) 16 (total volume 22 μl) were heated at 68° C. for 2 min and cooled on ice. […] The mixture was incubated at 42° C. for 1 hour, then 99° C. for 5 min. The resultant cDNA was diluted with 100 μl of water and stored at -20° C. until PCR was performed. […] The mixture was incubated for 4 min at 94° C., followed by 28 cycles of 45 s at 94° C., 45 s at 58° C., and 45 s at 72° C., followed by 7 min at 72° C., in a PCR apparatus (model 2400, Perkin Elmer). To verify equal amounts of RNA were used in the PCR reaction and to verify uniform amplification process, β-actin mRNA was also amplified from the sample as an internal control. […] A 100 bp DNA ladder was used as a size marker. The number of cycles versus intensity of the PCR band was evaluated to determine the optimum number of cycles to be in the linear range. […] Retinopathy scores were evaluated by the Kruskal-Wallis test for the overall group and by the Mann-Whitney test to determine differences between groups. Animals weights and GH expression were evaluated using Student's t-test. Statistical significance was determined at the P<0.05 level.

[3] = Growth as measured by animal weight; type: in vivo, C57BL6 mice; conditions: Woc4D or octreotide treatment P12-P16
Protocol: as §1, with “Animal killing was performed using a lethal dose of pentobarbital (120 mg/kg i.p.).” left out, “I. […]” for “I.”
Retinopathy scores were evaluated by the Kruskal-Wallis test for the overall group and by the Mann-Whitney test to determine differences between groups. Animals weights and GH expression were evaluated using Student's t-test. Statistical significance was determined at the P<0.05 level. […]

SSTR2 [4] = target: T1, SSTR2 (Homo sapiens, UniProt P30874); conditions: agonist analog; cited from earlier work
T1 sequence (P30874 whole entry, species assumed): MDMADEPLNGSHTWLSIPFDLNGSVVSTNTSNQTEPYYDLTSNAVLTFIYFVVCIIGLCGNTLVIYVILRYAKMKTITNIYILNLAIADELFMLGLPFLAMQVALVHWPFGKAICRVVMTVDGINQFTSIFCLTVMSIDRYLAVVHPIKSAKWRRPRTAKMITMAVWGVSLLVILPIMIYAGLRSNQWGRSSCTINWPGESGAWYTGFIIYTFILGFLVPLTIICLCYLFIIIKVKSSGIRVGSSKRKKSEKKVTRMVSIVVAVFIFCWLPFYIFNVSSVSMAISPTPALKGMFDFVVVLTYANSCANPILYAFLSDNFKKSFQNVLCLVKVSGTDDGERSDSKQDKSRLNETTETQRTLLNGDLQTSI

SSTR2 [5] = target: T1, SSTR2; conditions: cited from earlier work

With `C[C@@H](O)[C@H](NC(=O)[C@@H]1CSSC[C@H](NC(=O)[C@@H](Cc2ccc(O)cc2)NC(=O)[C@@H](Cc2ccc(O)cc2)NC(=O)[C@@H](Cc2ccc(O)cc2)NC(=O)[C@H](N)Cc2ccc(O)cc2)C(=O)N[C@@H](Cc2ccccc2)C(=O)N[C@H](Cc2c[nH]c3ccccc23)C(=O)N[C@@H](CCCCN)C(=O)N[C@@H]([C@@H](C)O)C(=O)N1)C(N)=O` [Woc4D, Dtyr-Dtyr-Dtyr-Dtyr-cyclo(Cys-Phe-DTrp-Lys-Thr-Cys)-Thr-NH2] (H-[dY][dY][dY][dY]CF[dW]KTCT-NH2; disulfide 5-10; N-terminus assumed) as the compound, how does the “Blood vessel growth subscore, median” value ([1]; Oxygen + Woc4D 50) read?
The value was 0.

What about the “Blood vessel tortuosity subscore, median” value ([1]; Oxygen + Woc4D 50) of the same compound?
The value was 1.

What about the “Hemorrhage subscore, median” value ([1]; Oxygen + Woc4D 50) of the same compound?
The value was 1.

And the “Blood vessel growth subscore, median (25th, 75th quartile)” value ([1]; Room air + Woc4D 50)?
The value was 0 (0, 0).

And the “Blood vessel tortuosity subscore, median (25th, 75th quartile)” value ([1]; Room air + Woc4D 50)?
Its value is 0 (0, 0).

And the “Blood vessel tufts subscore, median (25th, 75th quartile)” value ([1]; Room air + Woc4D 50)?
Its value is 0 (0, 0).

And the “Central vasoconstriction subscore, median (25th, 75th quartile)” value ([1]; Room air + Woc4D 50)?
The value was 0 (0, 0).

What about the “Extra retinal neovascularization subscore, median (25th, 75th quartile)” value ([1]; Room air + Woc4D 50) of the same compound?
The value was 0 (0, 0).

And the “Hemorrhage subscore, median (25th, 75th quartile)” value ([1]; Room air + Woc4D 50)?
The value was 0 (0, 0).

And the retinal neovascularization [1]?
Its retinal neovascularization is “inhibited retinal neovascularization in an equally effective manner”.

And the “retinal vascular pathology in retinal whole mount (FIG. 3)” value ([1]; oxygen exposed, Woc4D treated animal)?
Its value is “less retinal vascular pathology”.

What about the “median total retinopathy score” value ([1]; Woc4D 20 μg kg^−1 day^−1 P12-P16) of the same compound?
The value was 6(3,7).

And the “oxygen stimulated GH mRNA” value ([2]; oxygen + Woc4D 50 μg kg^−1 day^−1 P12-P16)?
Its value is “markedly reduced”.

And the “growth as measured by animal weight” value [3]?
Its value is “unaffected”.

What about the “affinity of interaction with SSTR2” value (SSTR2 [4]) of the same compound?
The value was “high affinity”.

For `C[C@@H](O)[C@@H]1NC(=O)[C@H](CCCCN)NC(=O)[C@@H](Cc2c[nH]c3ccccc23)NC(=O)[C@H](Cc2ccccc2)NC(=O)[C@@H](NC(=O)[C@H](N)Cc2ccccc2)CSSC[C@@H](C(=O)N[C@H](CO)[C@@H](C)O)NC1=O` [octreotide, D-Phe-Cys-Phe-D-Trp-Lys-Thr-Cys Thr(ol)], which “Blood vessel growth subscore, median” value ([1]; Oxygen + oct 20 bid) is on record?
The value was 0.

What about the “Blood vessel tufts subscore, median” value ([1]; Oxygen + oct 20 bid) of the same compound?
Its value is “decreased blood vessel tufts; also recorded: improvement”.

And the “Central vasoconstriction subscore, median” value ([1]; Oxygen + oct 20 bid)?
Its value is 1.

And the “Extra retinal neovascularization subscore, median” value ([1]; Oxygen + oct 20 bid)?
Its value is “decreased extra-retinal neovascularization; also recorded: improvement”.

And the “Blood vessel growth subscore, median (25th, 75th quartile)” value ([1]; Room air + oct 20 bid)?
The value was 0 (0, 0).

What about the “Blood vessel tortuosity subscore, median (25th, 75th quartile)” value ([1]; Room air + oct 20 bid) of the same compound?
Its value is 0 (0, 0).

And the “Blood vessel tufts subscore, median (25th, 75th quartile)” value ([1]; Room air + oct 20 bid)?
Its value is 0 (0, 0).

What about the “Central vasoconstriction subscore, median (25th, 75th quartile)” value ([1]; Room air + oct 20 bid) of the same compound?
Its value is 0 (0, 0).

What about the “Extra retinal neovascularization subscore, median (25th, 75th quartile)” value ([1]; Room air + oct 20 bid) of the same compound?
The value was 0 (0, 0).

And the “Hemorrhage subscore, median (25th, 75th quartile)” value ([1]; Room air + oct 20 bid)?
The value was 0 (0, 0).

What about the retinal neovascularization [1] of the same compound?
Its retinal neovascularization is “inhibited retinal neovascularization in an equally effective manner”.

And the “median total retinopathy score” value ([1]; octreotide 10 μg kg^−1 bid P12-P16)?
Its value is 6(3,7).

What about the “median total retinopathy score [median(25th, 75th quartile)]” value [1] of the same compound?
The value was “significant improvement”.

What about the “median total retinopathy score [median(25th, 75th quartile)]” value ([1]; listed as octreoride) of the same compound?
Its value is 3.5(2.9, 4.3).

What about the “oxygen stimulated GH mRNA” value ([2]; oxygen + octreotide 20 μg kg^−1 bid P12-P16) of the same compound?
Its value is “markedly reduced”.

What about the “growth as measured by animal weight” value [3] of the same compound?
Its value is “unaffected”.

And the “receptor selectivity of stimulation” value (SSTR2 [5])?
Its value is “effective in stimulating SSTR2 to the virtual exclusion of the other receptors”.
